Marks after values point to notes of the source that are not given here.
Key:
Serum cholesterol = Serum cholesterol analysis in ovariectomized rats (hyperlipidemia); assay type: in vivo, Sprague Dawley rats; settings: oral; for Decrease in Cholesterol (%): daily for 4 days, serum cholesterol versus ovariectomized controls
From the text: (§1) Seventy-five day old female Sprague Dawley rats (weight range of 200 to 225g) are obtained from Charles River Laboratories (Portage, MI). The animals are either bilaterally ovariectomized (OVX) or exposed to a Sham surgical procedure at Charles River Laboratories, and then shipped after one week. Upon arrival, they are housed in metal hanging cages in groups of 3 or 4 per cage and have ad libitum access to food (calcium content approximately 0.5%) and water for one week. Room temperature is maintained at 22.2° ± 1.7° C with a minimum relative humidity of 40%. The photoperiod in the room is 12 hours light and 12 hours dark.
(§2) Dosing Regimen Tissue Collection. After a one week acclimation period (therefore, two weeks post-OVX) daily dosing with test compound is initiated. 17α-ethynyl estradiol or the test compound is given orally, unless otherwise stated, as a suspension in 1% carboxymethylcellulose or dissolved in 20% cyclodextrin. Animals were dosed daily for 4 days. Following the dosing regimen, animals are weighed and anesthetized with a ketamine: Xylazine (2:1, V:V) mixture and a blood sample is collected by cardiac puncture. The animals are then sacrificed by asphyxiation with CO2, the uterus is removed through a midline incision, and a wet uterine weight is determined.
Cholesterol Analysis. Blood samples are allowed to clot at room temperature for 2 hours, and serum is obtained following centrifugation for 10 minutes at 3000 rpm. Serum cholesterol is determined using a Boehringer Mannheim Diagnostics high performance cholesterol assay. Briefly the cholesterol is oxidized to cholest-4-en-3-one and hydrogen peroxide. The hydrogen peroxide is then reacted with phenol and 4-aminophenazone in the presence of peroxidase to produce a p-quinone imine dye, which is read spectrophotemetrically at 500 nm. Cholesterol concentration is then calculated against a standard curve. The entire assay is automated using a Biomek Automated Workstation.

[1] = test system: Uterine Eosinophil Peroxidase (EPO); experiment: Uterine Eosinophil Peroxidase (EPO) Assay in ovariectomized rats; assay type: in vivo, Sprague Dawley rats; settings: for Serum Eosinophil (Vmax): oral, daily for 4 days, eosinophil peroxidase Vmax
From the text: as §1, §2
Uterine Eosinophil Peroxidase (EPO) Assay. Uteri are kept at 4° C until time of enzymatic analysis. The uteri are then homogenized in 50 volumes of 50 mM Tris buffer (pH - 8.0) containing 0.005% Triton X-100. Upon addition of 0.01% hydrogen peroxide and 10 mM O-phenylenediamine (final concentrations) in Tris buffer, increase in absorbance is monitored for one minute at 450 nm. The presence of eosonophils in the uterus is an indication of estrogenic activity of a compound. The maximal velocity of a 15 second interval is determined over the initial, linear portion of the reaction curve.

[2] = test system: MCF-7 breast adenocarcinoma cells; experiment: MCF-7 Proliferation Assay (tritiated thymidine incorporation); assay type: cell-based; settings: Homo sapiens, MCF7; 48 hours with drug, 4 hours tritiated thymidine pulse; read-out: IC50, inhibition of the growth of MCF-7 cells
Procedure: MCF-7 breast adenocarcinoma cells (ATCC HTB 22) are maintained in MEM (minimal essential medium, phenol red-free, Sigma, St. Louis, MO) supplemented with 10% fetal bovine serum (FBS) (V/V), L-glutamine (2 mM), sodium pyruvate (1 mM), HEPES {(N-[2-hydroxyethyl]piperazine-N'-[2-ethanesulfonic acid]10 mM}, non-essential amino acids and bovine insulin (1 ug/mL) (maintenance medium). Ten days prior to assay, MCF-7 cells are switched to maintenance medium supplemented with 10% dextran coated charcoal stripped fetal bovine serum (DCC-FBS) assay medium) in place of 10% FBS to deplete internal stores of steroids. MCF-7 cells are removed from maintenance flasks using cell dissociation medium (Ca^++/Mg^++ free HBSS (phenol red-free) supplemented with 10 mM HEPES and 2 mM EDTA). Cells are washed twice with assay medium and adjusted to 80,000 cells/mL. Approximately 100 µL (8,000 cells) are added to flat-bottom microculture wells (Costar 3596) and incubated at 37° C in a 5% CO2 humidified incubator for 48 hours to allow for cell adherence and equilibration after transfer. Serial dilutions of drugs or DMSO as a diluent control are prepared in assay medium and 50 µL transferred to triplicate microcultures followed by 50 µL assay medium for a final volume of 200 µL. […] Samples are counted by liquid scintillation using a Wallac BetaPlace β counter. […]

ovariectomized rats [3] = experiment: Uterine weight in ovariectomized rat post-menopausal model, 4-day oral dosing; assay type: in vivo, Sprague Dawley rats; settings: for Increase in Uterine Weight (%): daily for 4 days, versus ovariectomized controls
Procedure: In the examples illustrating the methods, a post-menopausal model was used in which effects of different treatments upon circulating lipids were determined.
as §1, §2

ovariectomized rats [4] = experiment: Osteoporosis Test Procedure: femur density in ovariectomized rats, 35-day dosing; assay type: in vivo, Sprague Dawley rats; settings: oral, in 20% hydroxypropyl β-cyclodextrin, daily for 35 days
From the text: Seventy-five day old female Sprague Dawley rats (weight range of 200 to 225g) are obtained from Charles River Laboratories (Portage, MI). The animals are either bilaterally ovariectomized (OVX) or exposed to a Sham surgical procedure at Charles River Laboratories, and then shipped after one week. Upon arrival, they are housed in metal hanging cages in groups of 3 or 4 per cage and have ad libitum access to food (calcium content approximately 0.5%) and water for one week. Room temperature is maintained at 22.2° ± 1.7° C with a minimum relative humidity of 40%. The photoperiod in the room is 12 hours light and 12 hours dark. Following the General Preparation Procedure, infra, the rats are treated daily for 35 days (6 rats per treatment group) and sacrificed by carbon dioxide asphyxiation on the 36th day. The 35 day time period is sufficient to allow maximal reduction in bone density, measured as described herein. At the time of sacrifice, the uteri are removed, dissected free of extraneous tissue, and the fluid contents are expelled before determination of wet weight in order to confirm estrogen deficiency associated with complete ovariectomy. […] The right femurs are excised and digitilized x-rays generated and analyzed by an image analysis program (NIH image) at the distal metaphysis. The proximal aspect of the tibiae from these animals are also scanned by quantitative computed tomography. […]

[5] = ovariectomized rats, EE2 at 0.1 mg/kg/day

O=C(c1ccc(OCCN2CCCCC2)nc1)c1c(-c2ccc(O)cc2)sc2cc(O)ccc12 [Prep. 1, [2-(4-Hydroxyphenyl)-6-hydroxybenzo[b]thien-3-yl][2-[2-(1-piperidinyl)ethoxy]pyridin-5-yl]methanone]
Decrease in Cholesterol (%) (Serum cholesterol; dose 0.1 mg/kg): 57.1* %
Decrease in Cholesterol (%) (Serum cholesterol; dose 1.0 mg/kg): 66.1* %
Decrease in Cholesterol (%) (Serum cholesterol; dose 10.0 mg/kg): 61.7* %
Serum Eosinophil (Vmax) ([1]; dose 0.1 mg/kg): 48.0*
Serum Eosinophil (Vmax) ([1]; dose 1.0 mg/kg): 70.5*
Serum Eosinophil (Vmax) ([1]; dose 10.0 mg/kg): 55.8*
IC50 [2]: 10 nM
Increase in Uterine Weight (%) (ovariectomized rats [3]; dose 0.1 mg/kg): 80.3* %
Increase in Uterine Weight (%) (ovariectomized rats [3]; dose 1.0 mg/kg): 91.4* %
Increase in Uterine Weight (%) (ovariectomized rats [3]; dose 10.0 mg/kg): 80.8* %

C#C[C@]1(O)CC[C@H]2[C@@H]3CCc4cc(O)ccc4[C@H]3CC[C@@]21C [EE2, 17-a-ethynyl estradiol, reference compound]
Decrease in Cholesterol (%) (Serum cholesterol; dose 0.1 mg/kg): 87.4* %
serum cholesterol compared to the ovariectomized animals (in words) (Serum cholesterol; [5]): caused a decrease in serum cholesterol
Serum Eosinophil (Vmax) ([1]; dose 0.1 mg/kg): 211.1*
eosinophil infiltration into the uterus (in words) ([1]; stromal layer of ovariectomized rat uteri): substantial and expected increase in eosinophil infiltration
bone loss / reduction in femur density after ovariectomy (in words) (ovariectomized rats [4]): prevented this loss
Increase in Uterine Weight (%) (ovariectomized rats [3]; dose 0.1 mg/kg): 182.1* %
uterine weight compared to the ovariectomized animals (in words) (ovariectomized rats [3]; [5]): substantially greater than the uterine weight of the ovariectomized animals
